Where a name gives a salt, the structure may show the parent alone. Read-outs that look alike come from different tables or passages of the source.
Tests used:
[1] = target: T1, SARS-CoV-2 PLpro (nsp3 1564–1878) (Severe acute respiratory syndrome coronavirus 2, UniProt P0DTD1); test: biochemical; parameters: FRET-quenched peptide (Pro3) cleavage by PLpro, 10 min pre-incubation, slope over 20 min, normalised to no-compound control; details: read-out: % of control remaining
[2] = target: T1, SARS-CoV-2 PLpro (nsp3 1564–1878); test: biochemical; parameters: FRET-quenched peptide (Pro3) cleavage by PLpro, 10 min pre-incubation, slope over 20 min, normalised to no-compound control; details: read-out: % of control remaining; remark: listed apart in the source

For `O=C(CCc1ccc(CN[C@H](C(=O)OC2CCCC2)C2CCCCC2)cn1)NO` [HDAC-IN-3], the remaining activity at 1.25 µM ([1]; Well no.=8172, low concentration screen) was 105% and the remaining activity at 3.75 µM ([2]; Well no.=8172, high concentration screen) was 104%.
`CN[C@H](CC(=O)O)C(=O)O` [N-Methyl-D-aspartic acid] gave a remaining activity at 1.25 µM ([1]; Well no.=1020, low concentration screen) of 103% and a remaining activity at 3.75 µM ([2]; Well no.=1020, high concentration screen) of 105%.
With `CC(C)(C)c1cc(C=C(C#N)C#N)cc(Br)c1O` [AG 1024] the remaining activity at 1.25 µM ([1]; Well no.=2307, low concentration screen) was 104% and the remaining activity at 3.75 µM ([2]; Well no.=2307, high concentration screen) was 104%.
With `N=c1ccn2c(n1)O[C@H]1[C@H](O)[C@@H](CO)O[C@H]12` [Ancitabine hydrochloride] the remaining activity at 1.25 µM ([1]; Well no.=294, low concentration screen) was 98.8% and the remaining activity at 3.75 µM ([2]; Well no.=294, high concentration screen) was 93.7%.
In the case of `CC(C)(C)C[C@@H]1N[C@@H](C(=O)N[C@H]2CC[C@H](O)CC2)[C@H](c2cccc(Cl)c2F)[C@]12C(=O)Nc1cc(Cl)ccc12` [MI-773], the remaining activity at 1.25 µM ([1]; Well no.=6488, low concentration screen) is reported as 96.1%, the remaining activity at 1.25 µM ([1]; Well no.=8278, low concentration screen) is reported as 102% and the remaining activity at 3.75 µM ([2]; Well no.=6488, high concentration screen) is reported as 93%. For the same compound, the remaining activity at 3.75 µM ([2]; Well no.=8278, high concentration screen) was 97.3%.
`C[C@@H]1OC(=O)[C@H]2C[C@H]3CCCC[C@@H]3[C@@H](/C=C/[C@H]3CCC[C@H](C)N3C)[C@@H]12` [Himbacine] showed a remaining activity at 1.25 µM ([1]; Well no.=3329, low concentration screen) of 99% and a remaining activity at 3.75 µM ([2]; Well no.=3329, high concentration screen) of 98.7%.
In the case of `O=C(Nc1ccc(S(=O)(=O)Nc2nccs2)cc1)C(c1ccccc1)c1ccccc1` [ICA-121431], the remaining activity at 1.25 µM ([1]; Well no.=7878, low concentration screen) is reported as 98.2% and the remaining activity at 3.75 µM ([2]; Well no.=7878, high concentration screen) is reported as 99.6%.
In the case of `Cc1cc(C)c(NC(=O)C[C@H](CC(=O)O)c2cccc3ccccc23)c(C(=O)N2CCC3(CCCC3)CC2)c1` [CR 2945], the remaining activity at 1.25 µM ([1]; Well no.=1111, low concentration screen) is reported as 105% and the remaining activity at 3.75 µM ([2]; Well no.=1111, high concentration screen) is reported as 98.1%.
Work on `COc1cc(NS(C)(=O)=O)ccc1Nc1c2ccccc2nc2ccccc12` [Amsacrine hydrochloride] yielded a remaining activity at 1.25 µM ([1]; Well no.=346, low concentration screen) of 97.8% and a remaining activity at 3.75 µM ([2]; Well no.=346, high concentration screen) of 103%.
In the case of `Nc1ccc(S(N)(=O)=O)cc1` [Sulfanilamide], the remaining activity at 1.25 µM ([1]; Well no.=4620, low concentration screen) is reported as 106%, the remaining activity at 1.25 µM ([1]; Well no.=7540, low concentration screen) is reported as 94.6% and the remaining activity at 3.75 µM ([2]; Well no.=4620, high concentration screen) is reported as 108%. It also gave a remaining activity at 3.75 µM ([2]; Well no.=7540, high concentration screen) of 93.1%.
`O=C(CN1C(=O)C2(CCCC2)NC[C@H]1c1cc(F)cc(F)c1)Nc1ccc2c(c1)C[C@@]1(C2)C(=O)Nc2ncccc21` [MK-3207 (Hydrochloride)] showed a remaining activity at 1.25 µM ([1]; Well no.=6950, low concentration screen) of 93.4% and a remaining activity at 3.75 µM ([2]; Well no.=6950, high concentration screen) of 93.6%.
With `O=C1O[C@H]([C@@H](O)CO)[C@H](O)[C@@H]1O` [L-Gulono-1,4-lactone] the remaining activity at 1.25 µM ([1]; Well no.=6771, low concentration screen) was 102% and the remaining activity at 3.75 µM ([2]; Well no.=6771, high concentration screen) was 104%.
With `CCN(CC)C(=O)c1ccc(O)c(OC)c1` [Vanillic acid diethylamide] the remaining activity at 1.25 µM ([1]; Well no.=644, low concentration screen) was 97.3% and the remaining activity at 3.75 µM ([2]; Well no.=644, high concentration screen) was 102%.
Compound `O=S(=O)(O)c1ccc(N=Nc2c(O)ccc3cc(S(=O)(=O)O)ccc23)cc1` [Sunset Yellow FCF] has a remaining activity at 1.25 µM ([1]; Well no.=8500, low concentration screen) of 95.1% and a remaining activity at 3.75 µM ([2]; Well no.=8500, high concentration screen) of 92.1%.
With `COc1cc(NC(=O)CCN2CCC(OC(=O)Nc3ccccc3-c3ccccc3)CC2)c(Cl)cc1CNC[C@H](O)c1ccc(O)c2[nH]c(=O)ccc12` [Batefenterol] the remaining activity at 1.25 µM ([1]; Well no.=7045, low concentration screen) was 106% and the remaining activity at 3.75 µM ([2]; Well no.=7045, high concentration screen) was 109%.
Work on `c1cnc2cc3c(cc2n1)[C@@H]1CNC[C@H]3C1` [Varenicline tartrate] yielded a remaining activity at 1.25 µM ([1]; Well no.=4855, low concentration screen) of 98.1% and a remaining activity at 3.75 µM ([2]; Well no.=4855, high concentration screen) of 103%.
Compound `N[C@]1(C(=O)O)CC[C@H](C(=O)O)C1` [trans-ACPD] has a remaining activity at 1.25 µM ([1]; Well no.=7040, low concentration screen) of 98.2% and a remaining activity at 3.75 µM ([2]; Well no.=7040, high concentration screen) of 96.7%.
In the case of `COc1cc2c(cc1O)CC[C@@H]1[C@@H]2CC[C@]2(C)[C@@H](O)CC[C@@H]12` [2-Methoxyestradiol], the remaining activity at 1.25 µM ([1]; Well no.=836, low concentration screen) is reported as 105%, the remaining activity at 1.25 µM ([1]; Well no.=6292, low concentration screen) is reported as 95.9% and the remaining activity at 3.75 µM ([2]; Well no.=836, high concentration screen) is reported as 102%. It also gave a remaining activity at 3.75 µM ([2]; Well no.=6292, high concentration screen) of 93.3%.
Work on `COc1cc(OC2CCN(C)CC2)ccc1Nc1ncc2c(n1)n(C1CCCC1)c(=O)n2C` [AZ 3146] yielded a remaining activity at 1.25 µM ([1]; Well no.=5029, low concentration screen) of 102% and a remaining activity at 3.75 µM ([2]; Well no.=5029, high concentration screen) of 101%.
`C=CC(=O)c1ccc2ccccc2c1` [ZM 449829 - 1-(2-Naphthalenyl)-2-propen-1-one] gave a remaining activity at 1.25 µM ([1]; Well no.=2388, low concentration screen) of 105% and a remaining activity at 3.75 µM ([2]; Well no.=2388, high concentration screen) of 106%.
`CCN(CC)C(=O)c1ccc(Nc2nc(OCC3CCCCC3)c3[nH]cnc3n2)cc1` [Cdk2 Inhibitor IV, NU6140] was tested, and the remaining activity at 1.25 µM ([1]; Well no.=2418, low concentration screen) was 100% and the remaining activity at 3.75 µM ([2]; Well no.=2418, high concentration screen) was 94.5%.
Work on `CC(=O)N1CCN(c2ccc(OC[C@@H]3CO[C@@](Cn4ccnc4)(c4ccc(Cl)cc4Cl)O3)cc2)CC1` (racemic) [Ketoconazole] yielded a remaining activity at 1.25 µM ([1]; Well no.=877, low concentration screen) of 107%, a remaining activity at 1.25 µM ([1]; Well no.=1853, low concentration screen) of 99.4% and a remaining activity at 3.75 µM ([2]; Well no.=877, high concentration screen) of 107%. The remaining activity at 3.75 µM ([2]; Well no.=1853, high concentration screen) was 100%.
Compound `CC1(C)S[C@@H]2[C@H](NC(=O)[C@H](NC(=O)N3CCNC3=O)c3ccccc3)C(=O)N2[C@H]1C(=O)O` [Azlocillin sodium salt] has a remaining activity at 1.25 µM ([1]; Well no.=5356, low concentration screen) of 98.5% and a remaining activity at 3.75 µM ([2]; Well no.=5356, high concentration screen) of 93.9%.
In the case of `OC(c1ccccc1)(c1ccccc1)C1CCNCC1` [Azacyclonol], the remaining activity at 1.25 µM ([1]; Well no.=5068, low concentration screen) is reported as 97.2% and the remaining activity at 3.75 µM ([2]; Well no.=5068, high concentration screen) is reported as 103%.
For `CC(=O)[C@H]1CC[C@H]2[C@@H]3CC[C@H]4CC(=O)CC[C@]4(C)[C@H]3CC[C@]12C` [5a-Pregnane-3,20-dione], the remaining activity at 1.25 µM ([1]; Well no.=7357, low concentration screen) was 106% and the remaining activity at 3.75 µM ([2]; Well no.=7357, high concentration screen) was 105%.
With `N=C(N)NCCC[C@H](N)C(=O)O` [L-Arginine] the remaining activity at 1.25 µM ([1]; Well no.=351, low concentration screen) was 97.9%, the remaining activity at 1.25 µM ([1]; Well no.=7205, low concentration screen) was 102% and the remaining activity at 3.75 µM ([2]; Well no.=351, high concentration screen) was 98.7%. For the same compound, the remaining activity at 3.75 µM ([2]; Well no.=7205, high concentration screen) was 99.2%.
`COc1ccc2c(c1)[C@]13CCCC[C@@H]1[C@H](C2)N(C)CC3` [Dextromethorphan] gave a remaining activity at 1.25 µM ([1]; Well no.=1976, low concentration screen) of 98.8% and a remaining activity at 3.75 µM ([2]; Well no.=1976, high concentration screen) of 101%.
Work on `CN1C2CCC1CC(NC(=O)c1nn(C)c3ccccc13)C2` (centres unmarked) [LY-278,584 maleate] yielded a remaining activity at 1.25 µM [1] of 98.8% and a remaining activity at 3.75 µM [2] of 101%.
For `C/C=C(/C)C(=O)O[C@H]1CC(C)=CC(=O)[C@@]2(C)CC[C@@](O)(C(C)C)[C@H]12` [Lapidin], the remaining activity at 1.25 µM ([1]; Well no.=3159, low concentration screen) was 105% and the remaining activity at 3.75 µM ([2]; Well no.=3159, high concentration screen) was 105%.
Work on `Nc1cc(Cl)c(NC2=NCCN2)c(Cl)c1` [p-Aminoclonidine hydrochloride] yielded a remaining activity at 1.25 µM ([1]; Well no.=151, low concentration screen) of 102% and a remaining activity at 3.75 µM ([2]; Well no.=151, high concentration screen) of 102%.
With `CCn1c(=O)[nH]c2cc(Cl)c(Cl)cc21` [DCEBIO] the remaining activity at 1.25 µM ([1]; Well no.=538, low concentration screen) was 102% and the remaining activity at 3.75 µM ([2]; Well no.=538, high concentration screen) was 104%.
Compound `C=C[C@H]1CN2CC[C@H]1C[C@H]2[C@H](O)c1ccnc2ccccc12` [(-)-Cinchonidine] has a remaining activity at 1.25 µM ([1]; Well no.=3196, low concentration screen) of 101% and a remaining activity at 3.75 µM ([2]; Well no.=3196, high concentration screen) of 102%.

Source: publication PMC8286840, “Identifying SARS-CoV-2 antiviral compounds by screening for small molecule inhibitors of Nsp3 papain-like protease” (Biochemical Journal, 2021)
